Results as given in patent US10517889B2, “Modulators of SMAD7 expression” (Ionis Pharmaceuticals, Inc., priority 2017, dated 2019).
Strand notation (5' to 3'): a small letter for the sugar, then the base; units joined by * are phosphorothioate-linked, units joined directly phosphodiester-linked; [ ] holds rarer units or linkages, { } end groups; capitals alone tell only the bases. k = constrained ethyl (cEt); [5mC] = 5-methylcytosine; d = 2'-deoxy (DNA)

The substances below were run on human SMAD7 mRNA (assay: Antisense inhibition of human SMAD7 mRNA expression in Hep3B cells by 3-10-3 cEt gapmers, 10,000 nM, electroporation (Example 2)). Settings: Hep3B cells, electroporation, 10,000 nM, approximately 24 hours; 3-10-3 cEt gapmers targeting SEQ ID NO: 3 and 4.
Assay type: cell-based
Method in brief: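 Hep3B cells (20,000 per well) were electroporated with 10,000 nM 16-mer 3-10-3 cEt gapmer (phosphorothioate, 5-methylcytosine). After about 24 h, SMAD7 mRNA was quantified by qRT-PCR with primer probe set RTS5062, normalised to RIBOGREEN total RNA, and expressed as percent inhibition versus untreated cells.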
For “829940 (kG*kT*k[5mC]*dA*dG*dT*dT*dG*dG*dT*dT*dT*dG*kA*kG*kA; antisense) [compound 829940]”, the “% inhibition of SMAD7 mRNA expression” value was 14%. For “829941 (k[5mC]*kA*kG*dT*d[5mC]*dA*dG*dT*dT*dG*dG*dT*dT*kT*kG*kA; antisense) [compound 829941]”, the “% inhibition of SMAD7 mRNA expression” value was 8%. “829943 (kG*kG*kG*dA*dG*dA*d[5mC]*dT*d[5mC]*d[5mC]*dA*dG*dT*kT*k[5mC]*kG; antisense) [compound 829943]” was tested, and the “% inhibition of SMAD7 mRNA expression” value was 43%.

Same assay, conditions: SMAD7 mRNA, Hep3B cells, electroporation with 10,000 nM antisense oligonucleotide, approximately 24 hours, primer probe set RTS5062, relative to untreated control cells
“829921 (antisense kT*k[5mC]*kA*dT*dA*d[5mC]*dG*dA*dG*dT*dG*dT*dA*kT*kG*kA) [compound 829921]” was tested, and the “% Inhibition” value was 10%. For “829922 (antisense kG*kT*kA*dT*d[5mC]*dA*dT*dA*d[5mC]*dG*dA*dG*dT*kG*kT*kA) [compound 829922]”, the “% Inhibition” value was 56%. “829923 (kA*kG*kT*dA*dT*d[5mC]*dA*dT*dA*d[5mC]*dG*dA*dG*kT*kG*kT; antisense) [compound 829923]” was tested, and the “% Inhibition” value was 54%. “829924 (k[5mC]*kT*k[5mC]*dA*dT*dT*dG*dA*dG*d[5mC]*dT*dA*dA*kG*kA*kA; antisense) [compound 829924]” was tested, and the “% Inhibition” value was 25%. In the case of “829925 (kA*kT*kG*d[5mC]*dT*d[5mC]*dA*dT*dT*dG*dA*dG*d[5mC]*kT*kA*kA; antisense) [compound 829925]”, the “% Inhibition” value is reported as 37%. For “829926 (k[5mC]*kA*kT*dG*d[5mC]*dT*d[5mC]*dA*dT*dT*dG*dA*dG*k[5mC]*kT*kA; antisense) [compound 829926]”, the “% Inhibition” value was 24%. In the case of “829927 (kA*kA*kG*dT*d[5mC]*dT*dA*dA*dA*d[5mC]*dA*dT*dG*k[5mC]*kT*k[5mC]; antisense) [compound 829927]”, the “% Inhibition” value is reported as 64%. In the case of “829928 (k[5mC]*kA*k[5mC]*dT*dA*d[5mC]*dA*dA*dT*dG*d[5mC]*dT*dA*kA*kA*kT; antisense) [compound 829928]”, the “% Inhibition” value is reported as 26%. For “829929 (kA*k[5mC]*k[5mC]*dA*dA*dT*d[5mC]*dT*dT*dG*dT*dG*dT*kT*kT*kA; antisense) [compound 829929]”, the “% Inhibition” value was 19%. “829930 (k[5mC]*kA*k[5mC]*d[5mC]*dA*dA*dT*d[5mC]*dT*dT*dG*dT*dG*kT*kT*kT; antisense) [compound 829930]” was tested, and the “% Inhibition” value was 0%. In the case of “829931 (kA*kA*k[5mC]*dA*d[5mC]*d[5mC]*dA*dA*dT*d[5mC]*dT*dT*dG*kT*kG*kT; antisense) [compound 829931]”, the “% Inhibition” value is reported as 0%. In the case of “829932 (kT*kG*kA*dT*dA*dA*d[5mC]*dA*d[5mC]*d[5mC]*d[5mC]*dA*dT*kA*kG*kA; antisense) [compound 829932]”, the “% Inhibition” value is reported as 41%. “829933 (kG*kT*kG*dA*dT*dA*dA*d[5mC]*dA*d[5mC]*d[5mC]*d[5mC]*dA*kT*kA*kG; antisense) [compound 829933]” was tested, and the “% Inhibition” value was 38%. “829934 (kT*kA*kG*dG*dT*dG*dA*dT*dA*dA*d[5mC]*dA*d[5mC]*k[5mC]*k[5mC]*kA; antisense) [compound 829934]” was tested, and the “% Inhibition” value was 26%. “829935 (k[5mC]*kT*kA*dG*dG*dT*dG*dA*dT*dA*dA*d[5mC]*dA*k[5mC]*k[5mC]*k[5mC]; antisense) [compound 829935]” was tested, and the “% Inhibition” value was 0%. In the case of “829936 (k[5mC]*kA*kG*d[5mC]*dT*dA*dG*dG*dT*dG*dA*dT*dA*kA*k[5mC]*kA; antisense) [compound 829936]”, the “% Inhibition” value is reported as 14%. In the case of “829937 (kT*kT*k[5mC]*dA*dG*d[5mC]*dT*dA*dG*dG*dT*dG*dA*kT*kA*kA; antisense) [compound 829937]”, the “% Inhibition” value is reported as 0%. For “829938 (kA*kT*kT*d[5mC]*dA*dG*d[5mC]*dT*dA*dG*dG*dT*dG*kA*kT*kA; antisense) [compound 829938]”, the “% Inhibition” value was 17%. For “829939 (kA*k[5mC]*kA*dT*dT*d[5mC]*dA*dG*d[5mC]*dT*dA*dG*dG*kT*kG*kA; antisense) [compound 829939]”, the “% Inhibition” value was 34%. “829944 (k[5mC]*k[5mC]*kA*dG*dT*dT*dA*dA*dT*d[5mC]*dA*dT*dT*kA*k[5mC]*kT; antisense) [compound 829944]” was tested, and the “% Inhibition” value was 23%. “829945 (kG*k[5mC]*k[5mC]*dA*dG*dT*dT*dA*dA*dT*d[5mC]*dA*dT*kT*kA*k[5mC]; antisense) [compound 829945]” was tested, and the “% Inhibition” value was 31%. With “829946 (kG*k[5mC]*kA*dG*d[5mC]*d[5mC]*dA*dG*dT*dT*dA*dA*dT*k[5mC]*kA*kT; antisense) [compound 829946]” the “% Inhibition” value was 44%. In the case of “829947 (kG*kG*kG*d[5mC]*dA*dG*d[5mC]*d[5mC]*dA*dG*dT*dT*dA*kA*kT*k[5mC]; antisense) [compound 829947]”, the “% Inhibition” value is reported as 31%. In the case of “829948 (k[5mC]*kG*kG*dG*d[5mC]*dA*dG*d[5mC]*d[5mC]*dA*dG*dT*dT*kA*kA*kT; antisense) [compound 829948]”, the “% Inhibition” value is reported as 43%. With “829949 (k[5mC]*k[5mC]*kG*dG*dG*d[5mC]*dA*dG*d[5mC]*d[5mC]*dA*dG*dT*kT*kA*kA; antisense) [compound 829949]” the “% Inhibition” value was 19%. With “829950 (kT*k[5mC]*k[5mC]*dG*dG*dG*d[5mC]*dA*dG*d[5mC]*d[5mC]*dA*dG*kT*kT*kA; antisense) [compound 829950]” the “% Inhibition” value was 43%. For “829951 (kG*k[5mC]*kT*d[5mC]*d[5mC]*dG*dG*dG*d[5mC]*dA*dG*d[5mC]*d[5mC]*kA*kG*kT; antisense) [compound 829951]”, the “% Inhibition” value was 10%. “829952 (kA*k[5mC]*k[5mC]*d[5mC]*dG*dT*d[5mC]*dT*dG*dG*dG*d[5mC]*dT*k[5mC]*k[5mC]*kG; antisense) [compound 829952]” was tested, and the “% Inhibition” value was 2%. For “829953 (kG*kT*k[5mC]*dA*d[5mC]*d[5mC]*d[5mC]*dG*dT*d[5mC]*dT*dG*dG*kG*k[5mC]*kT; antisense) [compound 829953]”, the “% Inhibition” value was 34%. For “829954 (kT*kT*kG*dT*d[5mC]*dA*d[5mC]*d[5mC]*d[5mC]*dG*dT*d[5mC]*dT*kG*kG*kG; antisense) [compound 829954]”, the “% Inhibition” value was 53%. For “829955 (k[5mC]*kT*kT*dG*dT*d[5mC]*dA*d[5mC]*d[5mC]*d[5mC]*dG*dT*d[5mC]*kT*kG*kG; antisense) [compound 829955]”, the “% Inhibition” value was 52%. In the case of “829957 (k[5mC]*kA*k[5mC]*d[5mC]*dT*dT*dG*dT*d[5mC]*dA*d[5mC]*d[5mC]*d[5mC]*kG*kT*k[5mC]; antisense) [compound 829957]”, the “% Inhibition” value is reported as 41%. With “829958 (kG*k[5mC]*kA*d[5mC]*d[5mC]*dT*dT*dG*dT*d[5mC]*dA*d[5mC]*d[5mC]*k[5mC]*kG*kT; antisense) [compound 829958]” the “% Inhibition” value was 51%. In the case of “829959 (kT*kT*kA*dT*dT*dA*dA*dT*dG*dG*dT*d[5mC]*dT*kG*k[5mC]*kT; antisense) [compound 829959]”, the “% Inhibition” value is reported as 12%. In the case of “829960 (kA*kT*kT*dA*dT*dT*dA*dA*dT*dG*dG*dT*d[5mC]*kT*kG*k[5mC]; antisense) [compound 829960]”, the “% Inhibition” value is reported as 17%. For “829961 (kT*kG*kA*dT*dT*dA*dT*dT*dA*dA*dT*dG*dG*kT*k[5mC]*kT; antisense) [compound 829961]”, the “% Inhibition” value was 14%. In the case of “829962 (k[5mC]*kT*kG*dA*dT*dT*dA*dT*dT*dA*dA*dT*dG*kG*kT*k[5mC]; antisense) [compound 829962]”, the “% Inhibition” value is reported as 19%. For “829963 (k[5mC]*k[5mC]*kT*dA*dG*dT*dT*d[5mC]*dG*d[5mC]*dA*dG*dA*kG*kT*k[5mC]; antisense) [compound 829963]”, the “% Inhibition” value was 46%. In the case of “829964 (k[5mC]*kA*k[5mC]*d[5mC]*dT*dA*dG*dT*dT*d[5mC]*dG*d[5mC]*dA*kG*kA*kG; antisense) [compound 829964]”, the “% Inhibition” value is reported as 3%. In the case of “829965 (k[5mC]*kT*k[5mC]*dA*d[5mC]*d[5mC]*dT*dA*dG*dT*dT*d[5mC]*dG*k[5mC]*kA*kG; antisense) [compound 829965]”, the “% Inhibition” value is reported as 0%. For “829966 (kT*kT*k[5mC]*d[5mC]*d[5mC]*dA*dG*dG*dA*dG*dG*dG*dT*kA*kT*kG; antisense) [compound 829966]”, the “% Inhibition” value was 0%. With “829967 (k[5mC]*k[5mC]*k[5mC]*d[5mC]*d[5mC]*dA*dG*dG*dG*dA*dA*dT*dG*k[5mC]*k[5mC]*k[5mC]; antisense) [compound 829967]” the “% Inhibition” value was 0%. In the case of “829968 (kA*kA*k[5mC]*d[5mC]*d[5mC]*d[5mC]*d[5mC]*dA*dG*dG*dG*dA*dA*kT*kG*k[5mC]; antisense) [compound 829968]”, the “% Inhibition” value is reported as 30%. “829969 (kG*kA*kA*d[5mC]*d[5mC]*d[5mC]*d[5mC]*d[5mC]*dA*dG*dG*dG*dA*kA*kT*kG; antisense) [compound 829969]” was tested, and the “% Inhibition” value was 17%. “829970 (kT*kG*kG*dA*dA*dG*dG*dG*dA*dA*d[5mC]*d[5mC]*d[5mC]*k[5mC]*k[5mC]*kA; antisense) [compound 829970]” was tested, and the “% Inhibition” value was 0%. “829971 (kG*k[5mC]*k[5mC]*dA*d[5mC]*dA*d[5mC]*dA*d[5mC]*d[5mC]*dT*d[5mC]*dA*kA*k[5mC]*kG; antisense) [compound 829971]” was tested, and the “% Inhibition” value was 20%. With “829972 (k[5mC]*kT*k[5mC]*dG*dG*d[5mC]*d[5mC]*dA*d[5mC]*dA*d[5mC]*dA*d[5mC]*k[5mC]*kT*k[5mC]; antisense) [compound 829972]” the “% Inhibition” value was 22%. “829973 (kA*kA*kG*dA*dG*dG*d[5mC]*d[5mC]*dG*d[5mC]*d[5mC]*dT*dG*kG*k[5mC]*kG; antisense) [compound 829973]” was tested, and the “% Inhibition” value was 17%. In the case of “829974 (kA*kA*kA*dA*dG*dA*dG*dG*d[5mC]*d[5mC]*dG*d[5mC]*d[5mC]*kT*kG*kG; antisense) [compound 829974]”, the “% Inhibition” value is reported as 27%. In the case of “829975 (k[5mC]*kA*kA*dA*dA*dG*dA*dG*dG*d[5mC]*d[5mC]*dG*d[5mC]*k[5mC]*kT*kG; antisense) [compound 829975]”, the “% Inhibition” value is reported as 32%.
